According to US7998938B2, “Cancer treatment by combined inhibition of proteasome and telomerase activities” (Geron Corporation, priority 2005, dated 2011):
Strand notation (5' to 3'): a small letter for the sugar, then the base; units joined by * are phosphorothioate-linked, units joined directly phosphodiester-linked; [ ] holds rarer units or linkages, { } end groups; capitals alone tell only the bases. [NPS] = N3'→P5' thiophosphoramidate internucleoside linkage; [NP] = N3'→P5' phosphoramidate internucleoside linkage; d = 2'-deoxy (DNA)

System: CAG MM cell line
Test: not given
Assay type: in vivo, NOD/SCID mice
Settings: Group 4, intravenous 0.25 mg/kg; p<0.01
Protocol: The CAG MM cell line (telomere length 2.7 Kb) was transfected with a retroviral vector encoding a triple fusion gene for HSV-TK, firefly luciferase and green fluorescence protein, and whole animal bioluminescence imaging was undertaken in a disseminated NOD/SCID model with extensive spinal cord and bone marrow tumor infiltration. NOD/SCID mice were not irradiated with gamma ray before cell implantation. […] Bortezomib was administered intravenously at a dose of 0.25 mg/kg (Table 1).
The results are discussed in Section IVA above, with reference to FIGS. 4A-B.

Compound | survival relative to PBS controls
CC(C)C[C@H](NC(=O)[C@H](Cc1ccccc1)NC(=O)c1cnccn1)B(O)O [bortezomib] | significant increase

System: telomerase
Test: Inhibition of telomerase, biochemical (FlashPlate) assay
Parameters: species or system human
Settings: NPS linkages unless NP backbone stated

Compound | IC50 [nM]
11-mer; truncation of GRN163 sequence: NPS oligonucleotide TAGGGTTAGAC (SEQ ID NO: 15) (DNA, all [NPS], methylation of C not given here) | 0.85 ± 0.35
12-mer; truncation of GRN163 sequence: NPS oligonucleotide TAGGGTTAGACA (SEQ ID NO: 14) (DNA, all [NPS], methylation of C not given here) | 0.36 ± 0.2
Alternative targeting 11-mer: NPS oligonucleotide GTTAGGGTTAG (SEQ ID NO: 16) (DNA dG[NPS]dT[NPS]dT[NPS]dA[NPS]dG[NPS]dG[NPS]dG[NPS]dT[NPS]dT[NPS]dA[NPS]dG) | 0.51 ± 0.13
Alternative targeting 13-mer: NPS oligonucleotide CAGTTAGGGTTAG (SEQ ID NO: 13), complementary to nucleotides 46-58 of SEQ ID NO: 1 (DNA, all [NPS], methylation of C not given here) | 0.049 ± 0.007
Complement of GRN163 sequence: NPS oligonucleotide TTGTCTAACCCTA (SEQ ID NO: 24) (DNA, all [NPS], methylation of C not given here) | 1000 ± 46
Duplex of GRN163 sequence: Duplex TAGGGTTAGACAA / ATCCCAATCTGTT (chemistry not fully specified; one strand is listed 3' to 5') | 8.9 ± 3
Mismatch of GRN163 sequence with NP backbone: TAGGTGTAAGCAA with NP backbone (DNA, all [NP], methylation of C not given here) | > 1000
Mismatch of GRN163 sequence: NPS oligonucleotide TAGGTGTAAGCAA (SEQ ID NO: 23) (DNA, all [NPS], methylation of C not given here) | 80 ± 31
Mismatch of alternative targeting 11-mer: NPS oligonucleotide GTTGAGTGTAG (SEQ ID NO: 25) (DNA dG[NPS]dT[NPS]dT[NPS]dG[NPS]dA[NPS]dG[NPS]dT[NPS]dG[NPS]dT[NPS]dA[NPS]dG) | 177 ± 93
Oligo-T 10-mer: Oligonucleotide TTTTTTTTTT (SEQ ID NO: 27) | > 1000
Telomere repeat unit: Oligonucleotide TTAGGG (SEQ ID NO: 26) | > 1000
